From patent publication US20080171355A1, “DEVICE FOR TESTING THE EFFECTIVENESS OF DISINFECTANTS ON PROTOZOAN PARASITES” (priority 2006, published 2008)

Tested on: Oocysts of Eimeria acervulina
Type: cell-based

CC(=O)OO [Peracetic Acid]
Sporulation Rate (%): 65.9%
